Source: ChEMBL document CHEMBL5528020, “Small molecular CD73 inhibitors: Recent progress and future perspectives” (Eur J Med Chem, 2024)
pIC50: −log10 of the molar value.

Target: 5'-nucleotidase (Homo sapiens, UniProt P21589)
Assay: Inhibition of human recombinant Ecto-5'-nucleotidase

5'-nucleotidase, sequence (P21589 whole entry): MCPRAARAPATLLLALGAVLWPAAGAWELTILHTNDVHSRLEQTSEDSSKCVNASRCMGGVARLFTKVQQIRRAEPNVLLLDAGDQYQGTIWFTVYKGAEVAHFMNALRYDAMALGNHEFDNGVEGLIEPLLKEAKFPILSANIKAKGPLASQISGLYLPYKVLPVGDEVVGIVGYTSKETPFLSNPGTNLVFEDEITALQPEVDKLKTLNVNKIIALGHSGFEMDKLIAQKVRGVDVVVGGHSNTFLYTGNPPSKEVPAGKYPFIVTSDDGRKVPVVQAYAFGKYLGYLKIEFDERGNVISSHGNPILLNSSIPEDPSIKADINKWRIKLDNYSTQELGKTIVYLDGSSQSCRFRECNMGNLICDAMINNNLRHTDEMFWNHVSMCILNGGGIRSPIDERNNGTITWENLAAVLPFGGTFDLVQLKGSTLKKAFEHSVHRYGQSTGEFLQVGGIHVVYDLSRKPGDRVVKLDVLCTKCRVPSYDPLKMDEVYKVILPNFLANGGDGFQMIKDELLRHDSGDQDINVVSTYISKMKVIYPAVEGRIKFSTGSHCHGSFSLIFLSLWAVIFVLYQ

| SMILES | pIC50 |
| --- | --- |
| O=S(=O)(c1ccc(-n2nccc2-c2ccc3nnn(-c4ccc5cn[nH]c5c4)c3c2)c(Br)c1)C(F)(F)F | < 10.00 |
| Cc1nc(-c2ccnn2-c2ccc(C#N)cc2)nc2cc(-c3ccc4cn[nH]c4c3)cnc12 | < 10.00 |
| CC1NC(n2nnc3ccc(-c4ccnn4-c4ccc(C#N)cc4)cc32)CCS1 (stereo not drawn) | < 10.00 |
| O=S(=O)(c1ccc(-n2nccc2-c2ccc3nnn(-c4ccc5cn[nH]c5c4)c3c2)cc1Br)C(F)(F)F | < 10.00 |
| O=S(=O)(c1ccc(-c2nn[nH]c2-c2cc3c(-c4cccc(O)c4)nnc-3co2)cc1Br)C(F)(F)F | < 10.00 |

Other lines, results leading:

| pIC50 | SMILES |
| --- | --- |
| < 10.00 | N#Cc1ccc(-c2ncsc2-c2cc3c(-c4ccc5cn[nH]c5c4)nnc-3co2)cc1 |
| < 10.00 | N#Cc1ccc(-n2nccc2-c2ccc3nnn(-c4cccc(O)c4)c3c2)cc1 |
| < 10.00 | O=S(=O)(c1ccc(-c2nsnc2-c2cc3c(-c4cccc(O)c4)nnc-3co2)cc1Br)C(F)(F)F |
